Test results as given in the supplement of paper PMC5580409.

What follows are compounds tested on Plasmodium falciparum 3D7 (assay: pEC50, asexual blood-stage growth inhibition). Details: 72 h.
Protocol: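 Held-out test set measured in the Guy lab in 2014 with the same procedure as the primary St. Jude screen. P. falciparum 3D7 blood-stage culture (2% hematocrit, 1% parasitemia) was treated with compound for 72 h at 37 °C, and growth was read by SYBR Green I fluorescence. EC50 came from a four-parameter Hill fit over a 10-point dilution series […].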
Compound `Cc1ccccc1NCC(O)Cn1c2ccc(Cl)cc2c2cc(Cl)ccc21` (configuration not stated) has a pEC50 of 5.44.
`Cc1cccc2c(C(=O)N3CCN(Cc4ccccc4)CC3)cc(-c3cccnc3)nc12` showed a pEC50 of 5.25.
`Cc1ccc2nc(-c3cccnc3)cc(C(=O)N3CCN(C(c4ccccc4)c4ccccc4)CC3)c2c1` gave a pEC50 of 5.71.
Work on `Cc1ccc(C2CC(C(F)(F)F)n3nc(C(=O)N(Cc4ccccc4)Cc4ccccc4)cc3N2)cc1` (configuration not stated) yielded a pEC50 of less than 4.82.
Compound `N=c1n(CCN2CCCCC2)c2ccccc2n1CC(O)c1cccc(Br)c1` (configuration not stated) has a pEC50 of 5.73.
For `COc1ccc(C2CC(=O)NC3=C2C(=O)CC(c2ccc(OC)c(OC)c2)C3)c(OC)c1` (configuration not stated), the pEC50 was less than 4.82.
For `O=c1c(Oc2ccc3ccccc3c2)c(C(F)(F)F)oc2c(CN3CCCC3)c(O)ccc12`, the pEC50 was 5.27.
`O=C(CC1C(=O)N(c2cccc(F)c2)C(=O)N1CCc1ccccc1F)Nc1cccc(F)c1` (configuration not stated) showed a pEC50 of less than 4.82.
`O=C(Nc1ccc([N+](=O)[O-])cc1O)C1CC1(c1ccccc1)c1ccccc1` (configuration not stated) showed a pEC50 of less than 4.82.
`Cc1cc(Cl)ccc1OCC(O)CNC1CCCC1` (configuration not stated) showed a pEC50 of 5.18.
In the case of `CN(C)CCCn1c(=N)n(CC(O)c2ccc(Br)cc2)c2ccccc21` (configuration not stated), the pEC50 is reported as 5.54.
Compound `CCCCn1c(=N)n(CC(O)COc2ccc(Cl)cc2)c2ccccc21` (configuration not stated) has a pEC50 of less than 4.82.
With `CN(C)CC(O)Cn1c2ccc(Cl)cc2c2cc(Cl)ccc21` (configuration not stated) the pEC50 was less than 4.82.
In the case of `CC(C)c1ccc(/C=C/C(=O)Nc2cccc(F)c2)cc1`, the pEC50 is reported as less than 4.82.
With `CC(=O)Nc1cccc(Nc2nc(N3CCCCC3)nc(N(c3ccccc3)c3ccccc3)n2)c1` the pEC50 was 5.61.
`CCOc1cc2c(cc1OCC)C(c1ccc(O)cc1)NCC2` (configuration not stated) was tested, and the pEC50 was less than 4.82.
In the case of `O=C(Nc1cc(Cl)ccc1O)c1cnn2c1NC(c1ccc(Br)cc1)CC2C(F)(F)F` (configuration not stated), the pEC50 is reported as less than 4.82.
With `O=c1c(Oc2ccccc2Cl)c(C(F)(F)F)oc2c(CN3CCCCC3)c(O)ccc12` the pEC50 was less than 4.82.
With `Cc1cc(C)c(C)c(Oc2cc(NC(=O)c3c(I)cnn3C)cc([N+](=O)[O-])c2)c1` the pEC50 was 6.28.
Compound `COc1ccc(C)cc1S(=O)(=O)N1CCC(CO)(Cc2cccc(C(F)(F)F)c2)CC1` has a pEC50 of less than 4.82.
In the case of `Cc1cccc(NC(=O)CSc2nc(C)c(C)n2-c2ccccc2)c1C`, the pEC50 is reported as less than 4.82.
With `CCOC(=O)C1=C(C)NC2=C(C(=O)CC(c3ccc(Cl)cc3)C2)C1c1cc(OC)c(OC)c(OC)c1` (configuration not stated) the pEC50 was less than 4.82.
Compound `Cc1ccc2[nH]c(-c3ccc(Br)cc3)nc2c1` has a pEC50 of less than 4.82.
`COc1ccc(CN2CCCn3c4c(c5cc(C)ccc53)CCCC42)cc1O` (configuration not stated) was tested, and the pEC50 was less than 4.82.
With `Oc1ccc(Cl)cc1CN1CCCC(N2CCCC2)C1` (configuration not stated) the pEC50 was less than 4.82.
In the case of `OC(CNCCc1ccccc1)Cn1c2ccc(Br)cc2c2cc(Br)ccc21` (configuration not stated), the pEC50 is reported as 5.81.
With `CCOc1cc(C2CC(=O)NC3=C2C(=O)CC(c2ccc(OC)c(OC)c2)C3)cc(Cl)c1O` (configuration not stated) the pEC50 was 6.68.
`Fc1ccccc1N1CCN(CC2CC3C=CC2C3)CC1` (configuration not stated) was tested, and the pEC50 was less than 4.82.
`C=CCn1c(=N)n(CC(O)c2ccc(Br)cc2)c2ccccc21` (configuration not stated) was tested, and the pEC50 was 5.62.
`CC1CCN(CC(O)Cn2c3ccc(Cl)cc3c3cc(Cl)ccc32)CC1` (configuration not stated) gave a pEC50 of less than 4.82.
`COc1ccc(CCNCC(O)Cn2c3ccccc3c3ccccc32)cc1OC` (configuration not stated) showed a pEC50 of 5.26.
Work on `CCn1c2ccccc2c2cc(CNC3CCCCC3)ccc21` yielded a pEC50 of less than 4.82.
With `O=C(Nc1ccccc1)c1ccccc1OCC(O)CN(Cc1ccccc1)Cc1ccccc1` (configuration not stated) the pEC50 was 6.31.
For `Cc1cccc(Oc2c(C(F)(F)F)oc3c(CN4CCN(C)CC4)c(O)ccc3c2=O)c1`, the pEC50 was 5.27.
Compound `O=C(Cc1ccccc1)N1CCN(c2ccc([N+](=O)[O-])c(NC3CC3)c2)CC1` has a pEC50 of less than 4.82.
`CCc1cccc(NC(=O)/C=C/c2ccccc2Cl)c1` gave a pEC50 of 5.36.
`CC(C)CCn1cc(C(=O)NC(C)(C)C)c(=O)c(C(=O)N2CCN(C/C=C/c3ccccc3)CC2)c1` gave a pEC50 of less than 4.82.
For `Cc1cccc(NC(=O)/C=C/c2ccccc2Cl)c1`, the pEC50 was less than 4.82.
`CCOC(=O)C1=C(C)NC2=C(C(=O)CC(c3ccc(Cl)cc3)C2)C1c1cccc(OC)c1OC` (configuration not stated) was tested, and the pEC50 was less than 4.82.
`Cc1ccc(NC(=O)/C=C/c2ccccc2Cl)cc1` gave a pEC50 of 5.46.
`CCN1/C(=C/C=C/C=C/c2sc3ccccc3[n+]2CC(=O)O)Sc2ccccc21` showed a pEC50 of less than 4.82.
`OC(CN1CCN(Cc2ccccc2)CC1)Cn1c2ccc(Cl)cc2c2cc(Cl)ccc21` (configuration not stated) gave a pEC50 of less than 4.82.
For `CN(C)c1nc(N(C#N)CCOc2ccccc2)nc(N2CCOCC2)n1`, the pEC50 was less than 4.82.
In the case of `CC(C)(C)NCC(O)Cn1c2ccccc2c2ccccc21` (configuration not stated), the pEC50 is reported as 5.21.
Compound `CCCCN(CCCC)CC(O)COc1ccccc1[N+](=O)[O-]` (configuration not stated) has a pEC50 of 7.13.
With `OC(CNCc1cccc(Cl)c1)c1ccccc1` (configuration not stated) the pEC50 was less than 4.82.
In the case of `Cc1cccc(NCC(O)Cn2c3ccccc3c3ccccc32)c1C` (configuration not stated), the pEC50 is reported as less than 4.82.
`CCOC(=O)C1=C(C)NC2=C(C(=O)CC(c3ccc(OC)cc3)C2)C1c1cc(Br)c(O)c(OC)c1` (configuration not stated) gave a pEC50 of 5.3.
With `CCCn1nnnc1NCc1cc(Br)c(OCc2ccccc2)c(OC)c1` the pEC50 was less than 4.82.
`CCOC(=O)c1cnc2ccccc2c1Nc1ccc2c(c1)OCCO2` was tested, and the pEC50 was less than 4.82.
In the case of `O=C(NCC1CCCCC1)c1cn(C2CC2)cc(C(=O)NC2CCN(Cc3ccccc3)CC2)c1=O`, the pEC50 is reported as less than 4.82.
`CCOC(=O)C1=C(C)NC2=C(C(=O)CC(c3ccccc3)C2)C1c1cc(Cl)c(O)c(OC)c1` (configuration not stated) showed a pEC50 of less than 4.82.
